Experimental data as given in ChEMBL document CHEMBL1152465, “Comparative evaluation of the inhibitory activities of a series of pyrimidinedione congeners that inhibit human immunodeficiency virus types 1 and 2” (Antimicrob Agents Chemother, 2008).
Active and inactive are the calls of the source.

Experiments:
[1] = Cytotoxicity against human HeLa cells expressing CD4-LTR by XTT assay; assay type: cell-based; conditions: read-out: TC50 (the source's name)
[2] = system: Human immunodeficiency virus 2; experiment: Antiviral activity against HIV2 assessed as inhibition of viral single round replication at early time point; assay type: functional, organism-based
[3] = system: Human immunodeficiency virus 1; experiment: Antiviral activity against HIV1 infected in human HeLa cells expressing CD4-LTR assessed as inhibition of viral entry-related beta galactosidase expression treated for 2 hrs followed by drug wash out measured after 48 hrs by MAGI assay; assay type: functional, organism-based; conditions: Human immunodeficiency virus 1, HeLa
[4] = system: Human immunodeficiency virus 2; experiment: Antiviral activity against HIV2 assessed as inhibition of viral replication treated at time points after viral entry into host cells; assay type: functional, organism-based
[5] = Therapeutic index, ratio of TC50 for human CEM-SS cells to EC50 for HIV2 ROD infected in human CEM-SS cells; assay type: cell-based; conditions: for selectivity ratio: CEM-SS cells, read-out: TI; for TI: cem-ss
[6] = system: Human immunodeficiency virus 2; experiment: Antiviral activity against HIV2 infected in human CEM-SS cells assessed as inhibition of viral replication and virus-induced cytopathic effect by dose-response curve analysis; assay type: functional; conditions: Human immunodeficiency virus 2, CEM-SS
[7] = molecular target: Human immunodeficiency virus type 1 reverse transcriptase (Human immunodeficiency virus 1, UniProt Q72547); experiment: Inhibition of wild type HIV1 reverse transcriptase assessed as 32P-labeled GMP incorporation into nascent DNA strand
[8] = molecular target: Human immunodeficiency virus type 1 reverse transcriptase (Human immunodeficiency virus 1, UniProt Q72547, K103N); experiment: Inhibition of HIV1 reverse transcriptase K103N mutant assessed as 32P-labeled GMP incorporation into nascent DNA strand
[9] = system: Human immunodeficiency virus 1; experiment: Antiviral activity against HIV1 infected in human CEM-SS cells assessed as inhibition of viral replication and virus-induced cytopathic effect by dose-response curve analysis; assay type: functional; conditions: Human immunodeficiency virus 1, CEM-SS
[10] = Cytotoxicity against human CEM-SS cells by XTT assay; assay type: cell-based; conditions: read-out: TC50 (the source's name)
[11] = Therapeutic index, ratio of TC50 human HeLa cells expressing CD4-LTR to EC50 for HIV1 entry inhibition in human HeLa cells expressing CD4-LTR; assay type: cell-based; conditions: read-out: TI
[12] = system: Human immunodeficiency virus 2; experiment: Inhibition of HIV2 reverse transcriptase assessed as 32P-labeled GMP incorporation into nascent DNA strand at highest concentration
[13] = system: Human immunodeficiency virus 1; experiment: Antiviral activity against HIV1 RF infected in human CEM-SS cells assessed as inhibition of virus-induced cytopathic effect by XTT assay; assay type: functional, organism-based; conditions: Human immunodeficiency virus 1, RF
[14] = system: Human immunodeficiency virus 2; experiment: Inhibition of HIV2 reverse transcriptase
[15] = Therapeutic index, ratio of TC50 for human CEM-SS cells to EC50 for HIV1 RF infected in human CEM-SS cells; assay type: cell-based; conditions: read-out: TI
[16] = system: Human immunodeficiency virus 2; experiment: Antiviral activity against HIV2 ROD infected in human CEM-SS cells assessed as inhibition of virus-induced cytopathic effect by XTT assay; assay type: functional, organism-based, ISOLATE ROD
[17] = Human immunodeficiency virus 2, ISOLATE ROD, CEM-SS, read-out: EC50

Row | SMILES | CC50 [1] [µM] | Activity [2] | EC50 [3] [µM] | Activity [4] | selectivity ratio [5] | EC99 [6] [µM] | IC50 [7] [µM] | IC50 [8] [µM] | EC99 [9] [µM] | CC50 [10] [µM] | selectivity ratio [11] | Activity [12] | EC50 [13] [µM] | Activity [14] | selectivity ratio [15] | EC50 [16, 17] [µM] | TI [5] | EC50 ([16]; cem-ss)
1 | Cc1cc(C)cc(Sc2c(C(C)C)c(=O)[nH]c(=O)n2CC2=CCCC2)c1 | 29.4 | Active | 0.009 | inactive | 57.4 | 1 | 0.079 | > 270 | 0.0003 | 29.4 | 3270 | inactive | 0.005 | inactive | 5920 | 0.5 | – | –
2 | CCc1c(Oc2cc(C)cc(C)c2)n(CC2CCC2)c(=O)[nH]c1=O | 1200 | Active | 0.3 | inactive | > 172 | > 100 | 0.235 | 0.289 | 1 | 1200 | 3960 | inactive | 0.022 | inactive | 54200 | 7.2 | – | –
3 | CCc1c(Oc2cc(C)cc(C)c2)n(CC2CC=CC2)c(=O)[nH]c1=O | 630 | Active | 0.09 | inactive | > 3.2 | > 100 | 0.38 | 5.1 | 0.2 | 1200 | 6850 | inactive | 0.0071 | inactive | 170000 | 19 | – | –
4 | Cc1cc(C)cc(Oc2c(C(C)C)c(=O)[nH]c(=O)n2CC2CC2)c1 | 23.4 | Active | 0.27 | inactive | 40 | 1 | 0.012 | 0.067 | – | 19.5 | 86 | inactive | 0.0018 | inactive | 15500 | 0.5 | – | –
5 | CCc1c(Sc2cc(C)cc(C)c2)n(CC2=CCCC2)c(=O)[nH]c1=O | 887 | Active | 0.009 | inactive | 451 | – | 0.138 | 66.8 | 1 | 887 | 104000 | inactive | 0.056 | inactive | 15800 | 2 | – | –
6 | Cc1cc(C)cc(Oc2c(C(C)C)c(=O)[nH]c(=O)n2CCC2=CCCC2)c1 | 17.4 | Active | 2.7 | inactive | – | – | 1.54 | 176 | 1 | 17.1 | 6 | inactive | 0.19 | inactive | 90 | – | Not Active | Not Active
7 | Cc1cc(C)cc(Oc2c(C(C)C)c(=O)[nH]c(=O)n2CCC2CCCC2)c1 | 12.7 | Active | 0.02 | inactive | – | – | 0.234 | 16.2 | 1 | 7.8 | 675 | inactive | 0.05 | inactive | 145 | – | Not Active | Not Active
8 | Cc1cc(C)cc(C(=O)c2c(C(C)C)c(=O)[nH]c(=O)n2CC2CCCCC2)c1 | 30.4 | Active | 0.24 | inactive | 23.8 | – | 0.008 | 16.5 | 1 | 16.2 | 127 | inactive | 0.0052 | inactive | 8550 | 0.7 | – | –
9 | CCc1c(C(=O)c2cc(C)cc(C)c2)n(CCC2=CCCC2)c(=O)[nH]c1=O | 1100 | Active | 2.6 | inactive | > 58.6 | – | 2 | > 273 | 1 | 1100 | 421 | inactive | 0.055 | inactive | 20100 | 18.6 | – | –
10 | Cc1cc(C)cc(Sc2c(C(C)C)c(=O)[nH]c(=O)n2CC2CC=CC2)c1 | 23.2 | Active | 0.08 | inactive | > 1.3 | – | 0.241 | > 270 | 1 | 26.5 | 307 | inactive | 1.22 | inactive | 22 | 15.3 | – | –
11 | Cc1cc(C)cc(Sc2c(C(C)C)c(=O)[nH]c(=O)n2Cc2ccccc2)c1 | 192 | Active | 0.08 | inactive | 1220 | – | 0.137 | 1.66 | 1 | 192 | 2340 | inactive | 0.0012 | inactive | 165000 | 0.2 | – | –
12 | Cc1cc(C)cc(C(=O)c2c(C(C)C)c(=O)[nH]c(=O)n2CC2CCC2)c1 | 34.2 | Active | 0.06 | inactive | 86.4 | – | 0.068 | 1.81 | 1 | 34.2 | 606 | inactive | 0.012 | inactive | 2870 | 0.4 | – | –
13 | CCc1c(Oc2cc(C)cc(C)c2)n(CCC2CCCC2)c(=O)[nH]c1=O | 55.9 | Active | 2.35 | inactive | – | – | 0.549 | 6.4 | 1 | 27 | 24 | inactive | 1.49 | inactive | 57 | – | Not Active | Not Active
14 | Cc1cc(C)cc(Oc2c(C(C)C)c(=O)[nH]c(=O)n2CCC2C=CCC2)c1 (stereo not drawn) | 14.2 | Active | 0.009 | inactive | 21.5 | – | 0.027 | 1.5 | 1 | 7.6 | 1650 | inactive | 0.0059 | inactive | 3560 | 0.4 | – | –
15 | Cc1cc(C)cc(Sc2c(C(C)C)c(=O)[nH]c(=O)n2CC2CCCC2)c1 | 10.6 | Active | 0.27 | inactive | – | – | 0.129 | > 268 | 1 | 7 | 39 | inactive | 0.011 | inactive | 1260 | – | Not Active | Not Active
16 | CCc1c(Sc2ccccc2)n(CC2CC=CC2)c(=O)[nH]c1=O | 30.3 | Active | 0.02 | inactive | – | – | 0.366 | 17.1 | 1 | 20.7 | 1250 | inactive | 0.15 | inactive | 262 | – | Not Active | Not Active
17 | CCc1c(C(=O)c2ccccc2)n(CC2CC=CC2)c(=O)[nH]c1=O | 88.5 | Active | 2.93 | inactive | 2.9 | – | 0.256 | 134 | 1 | 88.5 | 30 | inactive | 0.0617 | inactive | 1440 | 30.9 | – | –
